# In patent EP0721336B1, “BENZAZOLE COMPOUNDS FOR USE IN THERAPY” (CANCER RESEARCH CAMPAIGN TECHNOLOGY LIMITED, priority 1993, dated 1995):
# Where two headings read alike, the source gives them in different places.
# What was measured:
# [1] = system: MCF-7 mammary carcinoma cells; experiment: In vitro cytotoxicity assay (cell growth, propidium iodide fluorescence); type: cell-based, human; conditions: for IC50: Homo sapiens; for effect on cell growth: later series of experiments
# Text: (§1) This is illustrated in Tables 1 and 2 at the end of the present description which show in vitro test results obtained in various sets of experiments for the cytotoxic activity of this compound CJM 126 against a range of human tumour cell lines, expressed in terms of IC50 values (concentration or dosage required to reduce cell growth or proliferation by 50%) calculated from dose-effect curves plotted for cultures of the cells in question.
# (§2) In carrying out the above in vitro studies, the method used for conducting the cytotoxicity assays was generally substantially as follows: • Cells were maintained in a continuous logarithmic culture in Dulbecco's medium supplemented with 10% fetal calf serum and penicillin (100 IU/ml) and streptomycin (100 µg/ml). The cells were mildly trypsinized for passage and for use in assays. On day zero, 100µl of trypsinized tumour cells (1 x 10^4/ml) were plated in the wells of 96-well flat-bottom microtiter plates. […] On day two 50µl of the highest drug concentration was added to the wells of column 12 and from there serially diluted 3-fold to column 1 by serial transfer of 50µl using an 8-channel micropipette. The final volume of column 1 was adjusted to 100µl. No additions were made to the wells of rows A and B, which served as controls. The plates were further incubated for 5 days at 37°C and 5% CO2 in air. Each compound was tested in duplicate. • On day 7 the test was terminated by the addition of 100µl saline containing 0.002% w/v propidium iodide (Sigma), 0.3% drawing ink (Staedtler "Marsmatic 745" - Trade Mark) and 0.5% Triton X-100. The plates were kept at 4°C overnight before reading on an inverted microscope equipped with an automated scanning stage. Fluorescence intensity was measured in arbitrary units by a photomultiplier. An HP-87 computer controlled the movement of the stage and also collected and processed the data from the multiplier. • For each compound tested a dose-response curve was obtained and the IC50 value (the drug concentration at 50% inhibition of cell growth) was calculated.
# MCF 7-ADR mammary = experiment: In vitro cytotoxicity and growth stimulation assay; type: cell-based, human
# Text: as §1, §2
# HX/62 ovarian carcinoma = experiment: In vitro cytotoxicity assay; type: cell-based; conditions: Homo sapiens, HX62; 2nd series of experiments
# Text: as §1, §2
# IGR37 melanoma = experiment: In vitro cytotoxicity assay; type: cell-based; conditions: Homo sapiens, IGR-37
# Text: as §1, §2
# A2780 ovarian carcinoma = experiment: In vitro cytotoxicity assay; type: cell-based, human
# Text: as §1, §2
# [2] = system: MDA 468 mammary (ER-/EGFR+); experiment: In vitro cytotoxicity assay; type: cell-based, human; conditions: Homo sapiens
# Text: as §1, §2
# P388 cells = experiment: In vitro cytotoxicity assay; type: cell-based; conditions: Mus musculus
# Protocol: as §2, with “An HP-87 computer controlled the movement of the stage and also collected and processed the data from the multiplier. • For each compound tested a dose-response curve was obtained and the IC50 value (the drug concentration at 50% inhibition of cell growth) was calculated.” left out
# [3] = system: P388R8/22 (multidrug resistant) cells; experiment: In vitro cytotoxicity assay; type: cell-based
# Protocol: as §2, with “An HP-87 computer controlled the movement of the stage and also collected and processed the data from the multiplier. • For each compound tested a dose-response curve was obtained and the IC50 value (the drug concentration at 50% inhibition of cell growth) was calculated.” left out
# [4] = system: NCI (National Cancer Institute, U.S.A.) panel of human tumour cell lines; experiment: NCI tumour cell line panel test; type: cell-based; conditions: panel contains no breast cancer cell lines
# [5] = Lethal dose (LD50) determination; type: in vivo
# [6] = system: human MDA 468 xenograft tumours; experiment: In vivo activity against MDA 468 xenograft; set-up: species or system nude mice
# Protocol: The effect of CJM 126 (0.1, 0.01 and 0.001mg/kg) has also been investigated in nude mice bearing human MDA 468 xenograft tumours.
# MCF-7 mammary carcinoma = conditions: mouse, in vivo, ip, 120 mg/kg
compound,measurement,setting,value
"Nc1ccc(-c2nc3ccccc3s2)cc1 [CJM 126, 2-(4-aminophenyl)benzothiazole]",IC50,"[1]; MCF7, 1st series of experiments, initial decrease in cell growth, read-out: IC50",~0.002 µg/mL
same,IC50,"[1]; MCF7, MCF 7-wt, phase 1, after drug removal, read-out: observed IC50 after drug removal",0.00218 µM
same,IC50,"[1]; MCF7, MCF 7-wt, read-out: estimated IC50",~0.0029 µM
same,IC50,"[1]; MCF7, first series of experiments, second decrease at even greater doses, read-out: IC50 of second decrease (biphasic dose response)",~2 µg/mL
same,IC50,"[1]; MCF-wt, column A, read-out: MCF-wt A IC50 at sub-micromolar concentrations",0.003 µM
same,inhibition of growth,"[1]; MCF 7-wt, 1% FCS, presence of EGF, all concentrations 1nM-10µM",greater than 85%
same,times more sensitive than other human cell lines tested,"[1]; first series of experiments, Table 1",about 3000 times
same,estimated IC50,[1]; in the presence of 1% FCS,picomolar range
same,proliferation of colonies (2nd phase),"[1]; in the presence of 1% FCS, 3, 10, 30µM",no proliferation of colonies
same,effect on cell growth,[1]; 30nM and 100nM,maximum growth inhibition
same,effect on cell growth,"[1]; exposure to 1µM, 3µM and 10µM",loss of growth arrest
same,stimulation,"MCF 7-ADR mammary; 2nd series of experiments, concentration giving stimulation",stimulation > 1µM
same,effect on cell growth,"MCF 7-ADR mammary; 3 and 10µM, seeding density 2.5 x 10^2 cells per well",induced proliferation
same,IC50,HX/62 ovarian carcinoma,120 µM
same,IC50,IGR37 melanoma; 1st series of experiments,24 µg/mL
same,IC50,IGR37 melanoma; 2nd series of experiments,106 µM
same,IC50,A2780 ovarian carcinoma; 2nd series of experiments,43 µM
same,IC50,"A2780 ovarian carcinoma; Homo sapiens, A2780, 1st series of experiments",8.83 µg/mL
same,IC50,"A2780 ovarian carcinoma; Homo sapiens, A2780, 2nd series of experiments",39 µM
same,IC50,"[2]; MDA 468, read-out: estimated IC50",~0.0016 µM
same,IC50,"[2]; column A, read-out: MDA 468 A IC50 at sub-micromolar concentrations",0.0016 µM
same,IC50,"[2]; 2nd series of experiments, read-out: IC50",0.0016 µM
same,IC50,P388 cells,27 µM
same,IC50,[3],52 µM
same,toxicity in panel,[4],essentially non-toxic
same,LD50,[5]; daily administration over 3 consecutive days,> 31 mg/kg/day
same,LD50,"[5]; male, DBA/2, mouse, in vivo, ip, single i.p. dose, read-out: LD50",~125 mg/kg
same,Tumour weight (g),[6]; 0.1mg/kg daily,.30 + .07 g
same,Cross section tumour area (mm),"[6]; 0.1mg/kg daily, Day 5",97.75 ± 9.55 mm
same,Cross section tumour area (mm),"[6]; 0.1mg/kg daily, Day 12",71.07 ± 7.2 mm
same,Cross section tumour area (mm),"[6]; 0.1mg/kg daily, Day 15",82.17 + 1058 mm
same,Cross section tumour area (mm),"[6]; 0.1mg/kg daily, Day 19",88.84 ± 3.69 mm
same,Cross section tumour area (mm),"[6]; 0.1mg/kg daily, Day 22",105.66 ± 5.49 mm
same,Cross section tumour area (mm),"[6]; 0.1mg/kg daily, Day 26",124.55 ± 7.90 mm
same,Cross section tumour area (mm),"[6]; 0.1mg/kg daily, Day 29",182.15 ± 14.79 mm
same,Cross section tumour area (mm),"[6]; 0.1mg/kg daily, Day 32",196.66 ± 18.65 mm
same,Tumour weight (g),[6]; .001mg/kg daily,.19 + .08 g
same,Cross section tumour area (mm),"[6]; .001mg/kg daily, Day 5",85.54 ± 19.44 mm
same,Cross section tumour area (mm),"[6]; .001mg/kg daily, Day 12",52.93 ± 2.65 mm
same,Cross section tumour area (mm),"[6]; .001mg/kg daily, Day 15",67.81 ± 12.92 mm
same,Cross section tumour area (mm),"[6]; .001mg/kg daily, Day 19",64.8 ± 17.35 mm
same,Cross section tumour area (mm),"[6]; .001mg/kg daily, Day 22",75.12 ± 20.05 mm
same,Cross section tumour area (mm),"[6]; .001mg/kg daily, Day 26",81.53 ± 26.16 mm
same,Cross section tumour area (mm),"[6]; .001mg/kg daily, Day 29",114.65 + 3457 mm
same,Cross section tumour area (mm),"[6]; .001mg/kg daily, Day 32",129.06 ± 32.08 mm
same,Tumour weight (g),[6]; .01mg/kg daily,.29 + .15 g
same,Cross section tumour area (mm),"[6]; .01mg/kg daily, Day 5",120.78 ± 5.83 mm
same,Cross section tumour area (mm),"[6]; .01mg/kg daily, Day 12",71.65 ± 11.67 mm
same,Cross section tumour area (mm),"[6]; .01mg/kg daily, Day 15",78.21 ± 6.69 mm
same,Cross section tumour area (mm),"[6]; .01mg/kg daily, Day 19",98.03 ± 33.51 mm
same,Cross section tumour area (mm),"[6]; .01mg/kg daily, Day 22",117.02 ± 42.1 mm
same,Cross section tumour area (mm),"[6]; .01mg/kg daily, Day 26",131.58 ± 23.41 mm
same,Cross section tumour area (mm),"[6]; .01mg/kg daily, Day 29",164.90 ± 37.18 mm
same,Cross section tumour area (mm),"[6]; .01mg/kg daily, Day 32",191.68 ± 45.65 mm
same,signs of toxicity,MCF-7 mammary carcinoma,no signs of severe toxicity
